The values below come from publication PMC7156412, “Inhibition of the deubiquitinase USP10 induces degradation of SYK” (British Journal of Cancer, 2020).

Test [1] deals with SYK. The test can be described thus: Immunoblot of SYK protein levels in Ba/F3-FLT3-ITD cells. The class given is cell-based, murine. The following applies: 24 h of treatment. Here is the method: (§1) Protein lysate preparation, immunoblotting and immunoprecipitation were carried out as previously described.[21]
(In western blotting, separated proteins are transferred to a membrane and probed.)

Test [2] relates to FLT3. The test can be described thus: Immunoblot of FLT3 protein levels in Ba/F3-FLT3-ITD cells. The class given is cell-based, murine. The conditions noted are these: for Induction of FLT3 degradation: Ba/F3-FLT3-ITD cells, 24 hr, 10-20 µM; for FLT3 protein levels: all treated oncogenic FLT3-expressing cells, 24 h. Here is the method:
as §1

The subject of test [3] is USP10. The conditions noted are these: cited from earlier work.
The test system of test [4] is SYK. The test can be described thus: Immunoblot of SYK protein levels in MV4-11 cells. Format: cell-based. The following applies: 24 h of treatment. On the procedure:
as §1

For test [5], the system named is SYK. Kind of test: Immunoblot of SYK protein levels in PBMCs from normal donors. The conditions noted are these: 24 h of treatment. Format: cell-based. On the procedure: as §1
Test [6] deals with Ba/F3-FLT3-ITD cells. Set-up: method as in PMID 28967922. The conditions noted are these: cited from earlier work.
Test [7] relates to USP7. The following applies: cited from earlier work.
In test [8] the test system is FLT3-ITD-positive MOLM14 cells. Also noted: method as in PMID 28967922. The conditions noted are these: cited from earlier work.
For test [9], the system named is SYK. The test can be described thus: Immunoblot of SYK in Ba/F3-FLT3-ITD+TKD point mutant cells. The conditions noted are these: Ba/F3-FLT3-ITD+TKD point mutant cells (A627T, F691L, G697R, F691I), 24 hr, 5-10 µM. The class given is cell-based, murine. On the procedure: as §1
In test [10] the test system is FLT3. The test can be described thus: Immunoblot of FLT3 in Ba/F3-FLT3-ITD+TKD point mutant cells. The following applies: Ba/F3-FLT3-ITD+TKD point mutant cells (A627T, F691L, G697R, F691I), 24 hr, 5-10 µM. The class given is cell-based, murine. Here is the method: as §1

Sequence of SYK (P48025 whole entry): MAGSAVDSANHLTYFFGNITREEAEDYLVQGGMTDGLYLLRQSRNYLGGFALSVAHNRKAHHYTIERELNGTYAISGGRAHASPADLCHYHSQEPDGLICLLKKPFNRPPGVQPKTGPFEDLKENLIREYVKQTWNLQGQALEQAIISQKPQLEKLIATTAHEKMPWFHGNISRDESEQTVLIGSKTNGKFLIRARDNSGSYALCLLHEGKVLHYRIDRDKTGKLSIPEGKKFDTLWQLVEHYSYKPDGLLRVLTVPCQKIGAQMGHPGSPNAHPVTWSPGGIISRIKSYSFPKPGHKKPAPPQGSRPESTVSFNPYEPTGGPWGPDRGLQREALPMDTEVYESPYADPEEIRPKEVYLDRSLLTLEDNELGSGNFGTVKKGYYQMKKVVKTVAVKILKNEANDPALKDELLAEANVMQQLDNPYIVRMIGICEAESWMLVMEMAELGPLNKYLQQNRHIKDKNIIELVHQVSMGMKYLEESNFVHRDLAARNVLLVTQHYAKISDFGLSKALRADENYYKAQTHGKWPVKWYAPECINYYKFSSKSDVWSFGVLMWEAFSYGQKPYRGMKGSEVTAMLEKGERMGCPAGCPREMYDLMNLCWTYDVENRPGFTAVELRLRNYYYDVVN

With `CCCN(CCC)CCCNC(=O)c1ccc2c(Cl)c3c(nc2c1)CCCC3` [C598-0466], the “Effect on SYK protein levels” value in [1] was “strongly inducing degradation of SYK protein”. Also, the “Induction of FLT3 degradation” value in test [2] was “Induction of FLT3 degradation”. Also, in test [3] (Ub-AMC as substrate, as previously determined), the “USP10 inhibitory activity in biochemical assay” value was “showing activity against USP10”.

Consider HBX19818, for which the “Effect on SYK protein levels” value is listed as “downregulated” in test [1], “downregulated” in test [4] and “loss of SYK protein” in [5]. The “Induction of FLT3 degradation” value in test [2] is listed as “Induction of FLT3 degradation”. Also, the FLT3 protein levels result in test [2] is “lower”. Also, the “Combination effect with crenolanib or midostaurin” value in test [6] and in [8] was “synergistic effects” in each case. Also, in test [3], the “Inhibition of USP10 activity” value is on record as “inhibit the activity”. The “Inhibition of USP7 activity” value in test [7] is recorded as “inhibit the activity”.

With `CC(=O)c1cc([N+](=O)[O-])c(Sc2ccc(F)cc2F)s1` [P22077], the “Effect on SYK protein levels” value in test [1] was “downregulated”; in [4], “downregulated”; in test [5], “loss of SYK protein”; in test [9], “induces degradation of SYK and FLT3”. The “Induction of FLT3 degradation” value in [2] was “Induction of FLT3 degradation”. For the same compound, the FLT3 protein levels result in [2] was “lower”. Also, the “Effect on FLT3 protein levels” value in test [10] was “induces degradation of SYK and FLT3”. The “Inhibition of USP10 activity” value in [3] is “inhibit the activity”. In [7], the “Inhibition of USP7 activity” value is given as “inhibit the activity”.
